The values that follow come from US9237747B2, “Herbicidal compositions comprising 4-amino-3-chloro-5-fluoro-6-(4-chloro-2-fluoro-3-methoxyphenyl) pyridine-2-carboxylic acid or a derivative thereof and insecticides” (priority 2013, dated 2016).

The test system of assay [1] is LEFFA. Put plainly: Postemergence foliar-applied weed control, direct-seeded rice (greenhouse). It counts as in vivo, Leptochloa fascicularis. An excerpt:
(§1) Seeds or nutlets of the desired test plant species were planted in a soil matrix prepared by mixing a loam or sandy loam soil (e.g., 28.6 percent silt, 18.8 percent clay, and 52.6 percent sand, with a pH of about 5.8 and an organic matter content of about 1.8 percent) and calcareous grit in an 80 to 20 ratio. The soil matrix was contained in plastic pots with a volume of 1 quart and a surface area of 83.6 square centimeters (cm^2). When required to ensure good germination and healthy plants, a fungicide treatment and/or other chemical or physical treatment was applied. The plants were grown for 8-22 days in a greenhouse with an approximate 14 hour (h) photoperiod which was maintained at about 29° C. during the day and 26° C. during the night. Nutrients (Peters Excel® 15-5-15 5-Ca 2-Mg and iron chelate) were applied in the irrigation solution as needed and water was added on a regular basis. Supplemental lighting was provided with overhead metal halide 1000-Watt lamps as necessary. The plants were employed for testing when they reached the first through fourth true leaf stage.
(§2) Treatments consisted of the acid or esters of 4-amino-3-chloro-6-(4-chloro-2-fluoro-3-methoxyphenyl)-5-fluoropyridine-2-carboxylic acid (Compound A), each formulated as an SC (suspension concentrate), and various insecticidal components alone and in combination. Forms of compound A were applied on an acid equivalent basis.
(§3) Treatment requirements were calculated based upon the rates being tested, the concentration of active ingredient or acid equivalent in the formulation, and a 12 milliliter (mL) application volume at a rate of 187 liters per hectare (L/ha).
(§4) For treatments comprised of formulated compounds, measured amounts of compounds were placed individually in 25 mL glass vials and diluted in a volume of 1.25% volume per volume (v/v) Agri-Dex® crop oil concentrate to obtain 12× stock solutions. […] Application solutions were prepared by adding an appropriate amount of each stock solution (e.g., 1 mL) and diluted to the appropriate final concentrations with the addition of […] of an aqueous mixture of 1.25% (v/v) crop oil concentrate so that the final spray solutions contained 1.25+/−0.05% (v/v) crop oil concentrate.
(§5) As required, additional water and/or 97:3 v/v acetone/DMSO was added to individual application solutions so that the final acetone and DMSO concentrations of the application solutions being compared were 8.1% and 0.25%, respectively.
(§6) All stock solutions and applications solutions were visually inspected for compound compatibility prior to application. Spray solutions were applied to the plant material with an overhead Mandel track sprayer equipped with 8002E nozzles calibrated to deliver 187 L/ha over an application area of 0.503 square meters (m^2) at a spray height of 18 to 20 inches (46 to 50 cm) above average plant canopy height. Control plants were sprayed in the same manner with the solvent blank.
(§7) The treated plants and control plants were placed in a greenhouse as described above and watered by sub-irrigation to prevent wash-off of the test compounds. After approximately 3 weeks, the condition of the test plants as compared to that of the untreated plants was determined visually and scored on a scale of 0 to 100 percent where 0 corresponds to no injury or growth inhibition and 100 corresponds to complete kill.
(§8) Colby's equation was used to determine the herbicidal effects expected from the mixtures (Colby, S. R. Calculation of the synergistic and antagonistic response of herbicide combinations. Weeds 1967, 15, 20-22.).
(§9) The following equation was used to calculate the expected activity of mixtures containing two active ingredients, A and B: Expected=A+B−(A×B/100)

Assay [2] deals with LEFPA. The assay is described as above. It is filed as in vivo, Leptochloa panicoides.
From the text: as §1, §2, §3, §4, §5, §6, §7, §8, §9

Assay [3] deals with ECHCG. Kind of assay: In-water applied weed control, transplanted paddy rice (greenhouse). It counts as in vivo, Echinochloa crus-galli. As to conditions: 8 g ae/ha alone. The procedure:
Weed seeds or nutlets of the desired test plant species were planted in puddled soil (mud) prepared by mixing a shredded, non-sterilized mineral soil (50.5 percent silt, 25.5 percent clay, and 24 percent sand, with a pH of about 7.6 and an organic matter content of about 2.9 percent) and water at a 1:1 volumetric ratio. The prepared mud was dispensed in 365 mL aliquots into 16-ounce (oz.) non-perforated plastic pots with a surface area of 86.59 square centimeters (cm^2) leaving a headspace of 3 centimeters (cm) in each pot. Rice seeds were planted in Sun Gro MetroMix® 306 planting mixture, which typically has a pH of 6.0 to 6.8 and an organic matter content of about 30 percent, in plastic plug trays. Seedlings at the second or third leaf stage of growth were transplanted into 860 mL of mud contained in 32-oz. non-perforated plastic pots with a surface area of 86.59 cm^2 4 days prior to herbicide application. The paddy was created by filling the headspace of the pots with 2.5 to 3 cm of water. When required to ensure good germination and healthy plants, a fungicide treatment and/or other chemical or physical treatment was applied. The plants were grown for 4-22 days in a greenhouse with an approximate 14 h photoperiod which was maintained at about 29° C. during the day and about 26° C. during the night. Nutrients were added as Osmocote® (17:6:10, N:P:K+minor nutrients) at 2 grams (g) per 16-oz. pot and 4 g per 32-oz. pot. Water was added on a regular basis to maintain the paddy flood, and supplemental lighting was provided with overhead metal halide 1000-Watt lamps as necessary. The plants were employed for testing when they reached the first through fourth true leaf stage. […]
Treatment requirements for each compound or herbicidal component were calculated based upon the rates being tested, the concentration of active ingredient or acid equivalent in the formulation, an application volume of 2 mL per component per pot, and an application area of 86.59 cm^2 per pot.
For formulated compounds, a measured amount was placed in an individual 100 or 200 mL glass vial and was dissolved in a volume of 1.25% (v/v) AgriDex® crop oil concentrate to obtain application solutions. […]
The treated plants and control plants were placed in a greenhouse as described above and water was added as needed to maintain a paddy flood. After approximately 3 weeks the condition of the test plants as compared with that of the untreated plants was determined visually and scored on a scale of 0 to 100 percent where 0 corresponds to no injury or growth inhibition and 100 corresponds to complete kill. […]

For the molecule `COc1c(Cl)ccc(-c2nc(C(=O)OCc3ccccc3)c(Cl)c(N)c2F)c1F` [Compound A Benzyl Ester], the “Visual Weed Control (%) - 22 DAA LEFFA Obs” value in assay [1] (8 g ae/ha alone) stood at 23%; in assay [1] (16 g ae/ha alone), 30%; in assay [1] (22 DAA, 8 g ae/ha alone), 23%; in assay [1] (22 DAA, 16 g ae/ha alone), 30%; in assay [1] (22 DAA, 32 g ae/ha alone) it was 45%; in assay [1] (32 g ae/ha alone), 45%. Also, the “Visual Weed Control (%) - 22 DAA LEFPA Obs” value in assay [2] (8 g ae/ha alone) is reported as 5%; in assay [2] (16 g ae/ha alone), 0%; in assay [2] (32 g ae/ha alone), 38%. Besides, the “Visual Weed Control (%) - 21 DAA ECHCG Obs” value in assay [3] stood at 40%.
